Measurements taken from paper PMC9151520 (Archives of Toxicology, 2022).
“And” between values parts separate entries of the source, which are not always exact repeats. Equal entries are not always repeated. Where two headings read alike, the source gives them in different places.

Columns and labels:
[1] = test system: p53 signaling (p53RE-bla HCT-116 cells); assay: cells; assay type: cell-based
[2] = test system: p53 signaling (p53RE-bla HCT-116 cells)
[3] = test system: p53 signaling (p53RE-bla HCT-116 cells); remark: listed apart in the source
[4] = read-out: p53 activation EC50, cherry pick confirmation

For `CC(C)CP(=S)([S-])CC(C)C.[Na+]` [Sodium diisobutyldithiophosphinate], the “p53 activation EC50, primary screening” value [1] was “inactive”, the “p53 activation efficacy, cherry pick confirmation” value [1] was 36.227 and the “p53 activation efficacy, primary screening” value [1] was “inactive”. For the same molecule, the EC50 [1, 4] was 2.22 µM, the “p53 activation EC50, cherry pick confirmation” value [2] was “inactive” and the “p53 activation efficacy, cherry pick confirmation” value [2] was “inactive”. The “p53 activation EC50, cherry pick confirmation” value [3] was “inactive”, the “p53 activation efficacy, cherry pick confirmation” value [3] was “inactive” and the “Viability EC50, cherry pick confirmation” value (p53RE-bla HCT-116 cells) was “inactive”. The “Viability EC50, primary screening” value (p53RE-bla HCT-116 cells) was “inactive”, the “Viability efficacy, cherry pick confirmation” value (p53RE-bla HCT-116 cells) was “inactive” and the “Viability efficacy, primary screening” value (p53RE-bla HCT-116 cells) was “inactive”.
With `O=[Se](O)O` [Selenious acid] the “EC50, p53 activation, cherry pick confirmation” value [1] was “inactive”, the “Efficacy, p53 activation, cherry pick confirmation” value [1] was “inactive” and the “Efficacy, p53 activation, primary screening” value [1] was 32.672. The EC50 ([1]; read-out: EC50, p53 activation, primary screening) was 45.1 µM, the “EC50, p53 activation, cherry pick confirmation” value [2] was “inactive” and the “EC50, p53 activation, primary screening” value [2] was “inactive”. The “Efficacy, p53 activation, cherry pick confirmation” value [2] was “inactive”, the “Efficacy, p53 activation, primary screening” value [2] was “inactive” and the “EC50, p53 activation, cherry pick confirmation” value [3] was “inactive”. The “EC50, p53 activation, primary screening” value [3] was “inactive”, the “Efficacy, p53 activation, cherry pick confirmation” value [3] was “inactive” and the “Efficacy, p53 activation, primary screening” value [3] was “inactive”. The “EC50, viability, cherry pick confirmation” value (p53RE-bla HCT-116 cells) was “inactive”, the “EC50, viability, primary screening” value (p53RE-bla HCT-116 cells) was “inactive” and the EC50 (p53RE-bla HCT-116 cells; read-out: EC50, viability, cherry pick confirmation) was 25.8 µM. For the same molecule, the EC50 (p53RE-bla HCT-116 cells; read-out: EC50, viability, primary screening) was 42.9 µM.
With Chlorpyrifos oxon the “p53 activation EC50” value [1] was “inactive”, the p53 activation efficacy [1] was “inactive” and the EC50 [2] was 0.02 µM. For the same molecule, the p53 activation efficacy [2] was 33.1727 and 49.6483, the “p53 activation EC50” value [3] was “inactive” and the EC50 ([3]; read-out: p53 activation EC50) was 2.91 µM. The “Viability EC50” value (p53RE-bla HCT-116 cells) was “inactive” and the Viability efficacy (p53RE-bla HCT-116 cells) was “inactive”.
`CCOP(=O)(OCC)Oc1ccc([N+](=O)[O-])cc1` [Paraoxon] was tested, and the “p53 activation EC50, cherry pick confirmation” value [1] was “inactive”, the “p53 activation EC50, primary screening” value [1] was “inactive” and the “p53 activation efficacy, cherry pick confirmation” value [1] was “inactive”. The “p53 activation efficacy, primary screening” value [1] was “inactive”, the “p53 activation EC50, cherry pick confirmation” value [2] was “inactive” and the “p53 activation efficacy, cherry pick confirmation” value [2] was “inactive”. The “p53 activation EC50, cherry pick confirmation” value [3] was “inactive”, the “p53 activation efficacy, cherry pick confirmation” value [3] was “inactive” and the “Viability EC50, cherry pick confirmation” value (p53RE-bla HCT-116 cells) was “inactive”. For the same molecule, the “Viability EC50, primary screening” value (p53RE-bla HCT-116 cells) was “inactive”, the “Viability efficacy, cherry pick confirmation” value (p53RE-bla HCT-116 cells) was “inactive” and the “Viability efficacy, primary screening” value (p53RE-bla HCT-116 cells) was “inactive”.
In the case of `O=C(O)Cc1ccccc1Nc1c(Cl)cccc1Cl` [Diclofenac sodium], the “EC50, p53 activation, cherry pick confirmation” value [1] is reported as “inactive”, the “Efficacy, p53 activation, cherry pick confirmation” value [1] is reported as “inactive” and the EC50 ([1]; Homo sapiens, HCT-116, read-out: EC50, p53 activation, primary screening) is reported as 51.3 µM. The Emax ([1]; Homo sapiens, HCT-116, read-out: Efficacy, p53 activation, primary screening) was 38.2%, the “EC50, p53 activation, cherry pick confirmation” value [2] was “inactive” and the “EC50, p53 activation, primary screening” value [2] was “inactive”. For the same molecule, the “Efficacy, p53 activation, cherry pick confirmation” value [2] was “inactive”, the “Efficacy, p53 activation, primary screening” value [2] was “inactive” and the “EC50, p53 activation, cherry pick confirmation” value [3] was “inactive”. For the same molecule, the “EC50, p53 activation, primary screening” value [3] was “inactive”, the “Efficacy, p53 activation, cherry pick confirmation” value [3] was “inactive” and the “Efficacy, p53 activation, primary screening” value [3] was “inactive”. For the same molecule, the “EC50, viability, cherry pick confirmation” value (p53RE-bla HCT-116 cells) was “inactive”, the “EC50, viability, primary screening” value (p53RE-bla HCT-116 cells) was “inactive” and the “Efficacy, viability, cherry pick confirmation” value (p53RE-bla HCT-116 cells) was “inactive”. For the same molecule, the “Efficacy, viability, primary screening” value (p53RE-bla HCT-116 cells) was “inactive”.
In the case of `Cl.Nc1ccc2cc3ccc(N)cc3nc2c1` [Proflavin hydrochloride], the “p53 activation efficacy, cherry pick confirmation” value [1] is reported as 356.887, the “p53 activation efficacy, primary screening” value [1] is reported as 211.641 and the EC50 [1, 4] is reported as 3.65 µM. For the same molecule, the EC50 ([1]; read-out: p53 activation EC50, primary screening) was 2.9 µM, the “p53 activation EC50, cherry pick confirmation” value [2] was “inactive” and the “p53 activation EC50, primary screening” value [2] was “inactive”. For the same molecule, the “p53 activation efficacy, cherry pick confirmation” value [2] was “inactive”, the “p53 activation efficacy, primary screening” value [2] was “inactive” and the “p53 activation EC50, cherry pick confirmation” value [3] was “inactive”. For the same molecule, the “p53 activation EC50, primary screening” value [3] was “inactive”, the “p53 activation efficacy, cherry pick confirmation” value [3] was “inactive” and the “p53 activation efficacy, primary screening” value [3] was “inactive”. For the same molecule, the “Viability EC50, cherry pick confirmation” value (p53RE-bla HCT-116 cells) was “inactive”, the “Viability EC50, primary screening” value (p53RE-bla HCT-116 cells) was “inactive” and the “Viability efficacy, cherry pick confirmation” value (p53RE-bla HCT-116 cells) was “inactive”. For the same molecule, the “Viability efficacy, primary screening” value (p53RE-bla HCT-116 cells) was “inactive”.
With `CNC(=O)O/N=C/C(C)(C)SC` [Aldicarb] the “p53 activation EC50” value [1] was “inactive”, the p53 activation efficacy [1] was “inactive” and the “p53 activation EC50” value [2] was “inactive”. The “p53 activation EC50” value [3] was “inactive”, the “Viability EC50” value (p53RE-bla HCT-116 cells) was “inactive” and the Viability efficacy (p53RE-bla HCT-116 cells) was “inactive”.
